Experimental data from patent US20190167576A1, “USE OF HIGH AFFINITY MONOCLONAL ANTIBODY PRODUCT BINDERS TO INCREASE THE DURATION OF ACTION OF THERAPEUTIC MONOCLONAL ANTIBODY PRODUCTS IN A BIOLOGIC TISSUE” (priority 2016, published 2019).

Target: monoclonal antibody products
Conditions: binding to monoclonal antibody products; read-out: dissociation constant (KD)

For `Nc1cccc(Nc2nc(NCCO)nc(NCC(O)CNc3nc(NCCO)nc(Nc4cccc(N)c4)n3)n2)c1` [Compound 1, 1,3-bis({4-[(3-aminophenyl)amino]-6-[(2-hydroxyethyl)amino]-1,3,5-triazin-2-yl}amnio)propan-2-ol], the Kd was < 1000 nM.
